For the experiment, the system named is BRD pathogens, M. haemolytica and P. multocida. Kind of experiment: MIC screening panel of BRD pathogens (antibacterial / non-antibacterial). As to conditions: for MIC: read-out: antibacterial / non-antibacterial (MIC for the BRD pathogens).

For “1-((2S,3R,4S,6R)-2-(((2R,3S,4R,5R,8R,10R,11R,12S,13S,14R)-2-ethyl-3,4,10-trihydroxy-13-(((2R,4R,5S,6S)-5-hydroxy-4-methoxy-4,6-dimethyl-5-((4-(trifluoromethyl)piperazin-1-yl)methyl)tetrahydro-2H-pyran-2-yl)oxy)-3,5,8,10,12,14-hexamethyl-15-oxo-1-oxa-6-azacyclopentadecan-11-yl)oxy)-3-hydroxy-6-methyltetrahydro-2H-pyran-4-yl)-1,3-dimethyl-3-phenylurea [Example J-14]”, the “MIC ≤64 μg/mL for at least one of the bacterial strains (flag * at Ex #)” value (Table J, Formula (1-A1b) compounds) was “J-14* (*MIC ≤64 μg/mL for at least one of the bacterial strains)”. Take `CC[C@H]1OC(=O)[C@H](C)[C@@H](O)[C@H](C)[C@@H](O[C@@H]2O[C@H](C)C[C@H](N(C)C(=O)Nc3ncccn3)[C@H]2O)[C@](C)(O)C[C@@H](C)CN[C@H](C)[C@@H](O)[C@]1(C)O` [Example A-1, 1-((2S,3R,4S,6R)-2-(((2R,3S,4R,5R,8R,10R,11R,12S,13S,14R)-2-ethyl-3,4,10,13-tetrahydroxy-3,5,8,10,12,14-hexamethyl-15-oxo-1-oxa-6-azacyclopentadecan-11-yl)oxy)-3-hydroxy-6-methyltetrahydro-2H-pyran-4-yl)-1-methyl-3-(pyrimidin-2-yl)urea]: the MIC was more than 64 µg/mL. In the case of `CC[C@H]1OC(=O)[C@H](C)[C@@H](O)[C@H](C)[C@@H](O[C@@H]2O[C@H](C)C[C@H](N(C)C(=O)Nc3cnccn3)[C@H]2O)[C@](C)(O)C[C@@H](C)CN[C@H](C)[C@@H](O)[C@]1(C)O` [Example A-2, 1-((2S,3R,4S,6R)-2-(((2R,3S,4R,5R,8R,10R,11R,12S,13S,14R)-2-ethyl-3,4,10,13-tetrahydroxy-3,5,8,10,12,14-hexamethyl-15-oxo-1-oxa-6-azacyclopentadecan-11-yl)oxy)-3-hydroxy-6-methyltetrahydro-2H-pyran-4-yl)-1-methyl-3-(pyrazin-2-yl)urea], the MIC is more than 64 µg/mL. On to `CC[C@H]1OC(=O)[C@H](C)[C@@H](O)[C@H](C)[C@@H](O[C@@H]2O[C@H](C)C[C@H](N(C)C(=O)Nc3ccccn3)[C@H]2O)[C@](C)(O)C[C@@H](C)CN[C@H](C)[C@@H](O)[C@]1(C)O` [Example A-3, 1-((2S,3R,4S,6R)-2-(((2R,3S,4R,5R,8R,10R,11R,12S,13S,14R)-2-ethyl-3,4,10,13-tetrahydroxy-3,5,8,10,12,14-hexamethyl-15-oxo-1-oxa-6-azacyclopentadecan-11-yl)oxy)-3-hydroxy-6-methyltetrahydro-2H-pyran-4-yl)-1-methyl-3-(pyridin-2-yl)urea], for which the MIC was more than 64 µg/mL. Still for that read-out and setting: with `CC[C@H]1OC(=O)[C@H](C)[C@@H](O)[C@H](C)[C@@H](O[C@@H]2O[C@H](C)C[C@H](N(C)C(=O)Nc3cccnc3)[C@H]2O)[C@](C)(O)C[C@@H](C)CN[C@H](C)[C@@H](O)[C@]1(C)O` [Example A-4, 1-((2S,3R,4S,6R)-2-(((2R,3S,4R,5R,8R,10R,11R,12S,13S,14R)-2-ethyl-3,4,10,13-tetrahydroxy-3,5,8,10,12,14-hexamethyl-15-oxo-1-oxa-6-azacyclopentadecan-11-yl)oxy)-3-hydroxy-6-methyltetrahydro-2H-pyran-4-yl)-1-methyl-3-(pyridin-3-yl)urea] the figure was more than 64 µg/mL. Turning to `CC[C@H]1OC(=O)[C@H](C)[C@@H](O)[C@H](C)[C@@H](O[C@@H]2O[C@H](C)C[C@H](N(C)C(=O)Nc3cnn(C)c3)[C@H]2O)[C@](C)(O)C[C@@H](C)CN[C@H](C)[C@@H](O)[C@]1(C)O` [Example A-6, 1-((2S,3R,4S,6R)-2-(((2R,3S,4R,5R,8R,10R,11R,12S,13S,14R)-2-ethyl-3,4,10,13-tetrahydroxy-3,5,8,10,12,14-hexamethyl-15-oxo-1-oxa-6-azacyclopentadecan-11-yl)oxy)-3-hydroxy-6-methyltetrahydro-2H-pyran-4-yl)-1-methyl-3-(1-methyl-1H-pyrazol-4-yl)urea], the MIC is more than 64 µg/mL.

`CC[C@H]1OC(=O)[C@H](C)[C@@H](O)[C@H](C)[C@@H](O[C@@H]2O[C@H](C)C[C@H](N(C)C(=O)Nc3cc(C)n(C)n3)[C@H]2O)[C@](C)(O)C[C@@H](C)CN[C@H](C)[C@@H](O)[C@]1(C)O` [Example A-7, 3-(1,5-dimethyl-1H-pyrazol-3-yl)-1-((2S,3R,4S,6R)-2-(((2R,3S,4R,5R,8R,10R,11R,12S,13S,14R)-2-ethyl-3,4,10,13-tetrahydroxy-3,5,8,10,12,14-hexamethyl-15-oxo-1-oxa-6-azacyclopentadecan-11-yl)oxy)-3-hydroxy-6-methyltetrahydro-2H-pyran-4-yl)-1-methylurea]: the MIC is more than 64 µg/mL. Regarding `CC[C@H]1OC(=O)[C@H](C)[C@@H](O)[C@H](C)[C@@H](O[C@@H]2O[C@H](C)C[C@H](N(C)C(=O)Nc3ccc(C#N)cc3)[C@H]2O)[C@](C)(O)C[C@@H](C)CN[C@H](C)[C@@H](O)[C@]1(C)O` [Example A-9, 3-(4-cyanophenyl)-1-((2S,3R,4S,6R)-2-(((2R,3S,4R,5R,8R,10R,11R,12S,13S,14R)-2-ethyl-3,4,10,13-tetrahydroxy-3,5,8,10,12,14-hexamethyl-15-oxo-1-oxa-6-azacyclopentadecan-11-yl)oxy)-3-hydroxy-6-methyltetrahydro-2H-pyran-4-yl)-1-methylurea], the MIC was more than 64 µg/mL. On to `CC[C@H]1OC(=O)[C@H](C)[C@@H](O)[C@H](C)[C@@H](O[C@@H]2O[C@H](C)C[C@H](N(C)C(=O)Nc3cccc(C(F)(F)F)c3)[C@H]2O)[C@](C)(O)C[C@@H](C)CN[C@H](C)[C@@H](O)[C@]1(C)O` [Example A-10, 1-((2S,3R,4S,6R)-2-(((2R,3S,4R,5R,8R,10R,11R,12S,13S,14R)-2-ethyl-3,4,10,13-tetrahydroxy-3,5,8,10,12,14-hexamethyl-15-oxo-1-oxa-6-azacyclopentadecan-11-yl)oxy)-3-hydroxy-6-methyltetrahydro-2H-pyran-4-yl)-1-methyl-3-(3-(trifluoromethyl)phenyl)urea], for which the MIC is more than 64 µg/mL. For `CC[C@H]1OC(=O)[C@H](C)[C@@H](O)[C@H](C)[C@@H](O[C@@H]2O[C@H](C)C[C@H](N(C)C(=O)Nc3cccc(C#N)c3)[C@H]2O)[C@](C)(O)C[C@@H](C)CN[C@H](C)[C@@H](O)[C@]1(C)O` [Example A-11, 3-(3-cyanophenyl)-1-((2S,3R,4S,6R)-2-(((2R,3S,4R,5R,8R,10R,11R,12S,13S,14R)-2-ethyl-3,4,10,13-tetrahydroxy-3,5,8,10,12,14-hexamethyl-15-oxo-1-oxa-6-azacyclopentadecan-11-yl)oxy)-3-hydroxy-6-methyltetrahydro-2H-pyran-4-yl)-1-methylurea], the MIC was more than 64 µg/mL. In the case of `CC[C@H]1OC(=O)[C@H](C)[C@@H](O)[C@H](C)[C@@H](O[C@@H]2O[C@H](C)C[C@H](N(C)C(=O)Nc3ccccc3Cl)[C@H]2O)[C@](C)(O)C[C@@H](C)CN[C@H](C)[C@@H](O)[C@]1(C)O` [Example A-12, 3-(2-chlorophenyl)-1-((2S,3R,4S,6R)-2-(((2R,3S,4R,5R,8R,10R,11R,12S,13S,14R)-2-ethyl-3,4,10,13-tetrahydroxy-3,5,8,10,12,14-hexamethyl-15-oxo-1-oxa-6-azacyclopentadecan-11-yl)oxy)-3-hydroxy-6-methyltetrahydro-2H-pyran-4-yl)-1-methylurea], the MIC is more than 64 µg/mL.

The values are drawn from patent publication US12295936B2, “Immunomodulating urea azalides” (Zoetis Services LLC, priority 2020, dated 2025).
